Measurements reported in US11485974B2, “Method of fixing and expressing physiologically active substance” (STELIC INSTITUTE & CO., priority 2007, dated 2022).

Legend:
[1] = Retention of iopamidol injected into the submucous tissue of rat large intestine, X-ray photography and CT scanning; format: in vivo, Wistar rats; details: normal rats, 20 μl injected into submucous tissue of the left colon, after one hour
Experimental: Next, the retention of physiologically active substances in the submucous tissue of normal rats was analyzed by diagnostic imaging using X-ray and CT, which are routinely used clinically. Twelve-week-old male Wistar rats were anesthetized with Nembutal, and then an ultrathin endoscope for humans was inserted into the large intestines and 20 μl of iopamidol, a contrast medium, was endoscopically injected alone into the submucous tissue of the left colon using a local injection needle.
X-ray photography and CT scanning was carried out after one hour.

[2] = test system: DSS-induced colitis model mice; assay: Disease activity index (DAI: stool consistency, fecal occult blood) in DSS colitis model mice; format: in vivo, C57BL/6J mice; details: compared to the control group
Experimental: (§1) A colitis model mice was prepared by allowing C57BL/6J mice (female, six weeks old; CLEA Japan Inc.) to freely drink […] containing 3% dextran sulfate sodium (DSS; Wako Pure Chemical Industries Inc.) for five days. This DSS-induced colitis model has excellent reproducibility, and is thus used widely as a standard experimental model for inflammatory bowel diseases such as mouse ulcerative colitis and Crohn's disease (Sasaki N, J Inflamm. 2005 2: 13; as a review, Pucilowska J B et al. Am J Physiol Gastroenterol Liver Physiol. 279: G653-G659, 2000).
The same GalNAc4S-6ST siRNA (0.3 μg/head) as used in Example 5 was injected to the submucous tissue of mouse large intestine, while the mice were allowed to drink water containing 3% DSS. The control groups used were: a group injected with scramble siRNA (“BLOCK-iT Fluorescent Oligo (Invitrogen)” in Example 4) and an untreated group in which mice were allowed to drink DSS water only. The body weight and disease activity index (DAI) score (Kihara M, Gut. 2003 52: 713-9) were recorded for five days while the mice were allowed to drink water containing 3% DDS. […]
The colitis activity index (DAI) was analyzed by the same method described in Example 7.
The first day (day 0) of feeding with DSS water is defined as 1, and the stool consistency and fecal occult blood in each mouse were recorded. […]

[3] = Nucleic acid kinetics in the submucous tissue of mouse large intestine, siRNA concentration by ELISA; format: in vivo; details: mice, 0.3 μg/10 μl at three sites
Experimental: Next, in order to also confirm the retention of injected siRNA in the submucous tissue of the large intestine by biochemical methods, the concentration of siRNA in the large intestine was determined by using the ELISA method for direct quantitation of siRNA according to a published report (Rosie Z et al. Analytical Biochem. 304: 19-25, 2002). The nucleotide sequences of GalNac 4S-6ST siRNA used in this Example are shown below, but the sequences are not limited to the example shown herein.
GalNAc4S-6ST siRNA (0.3 μg/10 μl) was injected at three sites to the submucous tissue of large intestine in eight-week-old female C57BL/6.1 mice by the same method described in Example 3. The mice were sacrificed 0.5, 3, 6, or 24 hours after injection to prepare histological samples of the large intestine. The siRNA concentrations were determined by the ELISA methods.
1 μg/ml siRNA before injection was used as a positive control without any additional treatment.

[4] = test system: GalNAc4S-6ST gene expression; assay: Gene knockdown by siRNA administered into the submucous tissue of large intestine in DSS colitis model mice, quantitative PCR; format: in vivo, mouse; details: 0.3 μg/head into submucous tissue of large intestine, day 5
Experimental: as §1
The same GalNAc4S-6ST siRNA (0.3 μg/head) as used in Example 5 was injected to the submucous tissue of mouse large intestine, while the mice were allowed to drink water containing 3% DSS. […] The body weight and disease activity index (DAI) score (Kihara M, Gut. 2003 52: 713-9) were recorded for five days while the mice were allowed to drink water containing 3% DDS. […]
1 ml of RNA iso (Takara Bio) was added to 50 mg each of excised organs (large intestine and kidney). […] The RNA concentrations of extracted samples in UV plates (Corning Costar) were determined using a plate reader (POWER Wave XS; BIO-TEK).
Next, reverse transcription reaction (cDNA synthesis) is conducted by the following procedure. […] For quantitative PCR, SYBR Premix Kit (TAKARA) and Real-time PCR thermal cycler DICE (TAKARA) were used. […]

[5] = molecular target: T1, ribonuclease (RNase A) (Bos taurus, UniProt P61823); assay: Stability test for GalNAc4S-6ST siRNA at 37° C., agarose gel electrophoresis; format: in vitro ADME
T1 construct: purchased SIGMA
T1 sequence (P61823 27-150): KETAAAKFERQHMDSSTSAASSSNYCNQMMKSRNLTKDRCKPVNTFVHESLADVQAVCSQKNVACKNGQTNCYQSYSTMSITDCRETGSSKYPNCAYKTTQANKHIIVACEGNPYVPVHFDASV
Experimental: In this Example, GalNAc4S-6ST siRNA, the same substance used in Example 5, was assessed for its stability. First, test solutions were prepared by adding 1 μg of GalNAc4S-6ST siRNA to 200 μl of sterile phosphate buffer or 0.1% atelocollagen and stirring the mixtures at 4° C. for 20 minutes. 0.1% atelocollagen was prepared by combining 1% atelocollagen (Koken) with ten volumes of sterile phosphate buffer and stirring the mixture at 4° C. for 16 hours. Then, 40 μg of a ribonuclease (RNase A; SIGMA) was added to the prepared test solutions of GalNAc4S-6ST siRNA, and the mixtures were incubated to react at 37° C. The reaction time was 5, 15, 30, 45, or 60 minutes. 500 μl of RNA iso (Takara Bio) was added to the test solutions after reaction. The mixtures were incubated on ice for five minutes, and centrifuged at 14,000 rpm for 15 minutes. The resulting supernatants were collected, and 500 μl of isopropanol and 1 μl of glycogen (Invitrogen) were added thereto. The mixtures were incubated for 15 minutes, and centrifuged at 14,000 rpm for 15 minutes. The supernatants were discarded, and the pellets were saved. 1 ml of 75% ethanol was added to the pellets, and the mixtures were centrifuged at 14,000 rpm for 15 minutes. After this step was repeated twice, the pellets were dried and dissolved in 25 μl of injection solvent (Otsuka Pharmaceutical). 10 μl each of the solutions were combined with 2 μl of Loading Dye (Invitrogen). 3.5% agarose gel was prepared using UltraPure Agarose (Invitrogen), and the samples were electrophoresed in a Mupid-2 plus (ADVANCE) at 100 V for 20 minutes. After electrophoresis, the gel was shaken for 20 minutes in a stain solution prepared by 10,000 times diluting Ethidium Bromide (Invitrogen) with 1×LoTE (composition: 3 mM Tris-HCl (pH 7.5) (Invitrogen), 0.2 mM EDTA (pH 7.5) (Sigma Aldrich Japan)). The gel was photographed with Fluourchem (Innotech) and analyzed.

[6] = test system: DSS-induced colitis model mice; assay: Length of the large intestine (colonic contraction) in DSS colitis model mice; format: in vivo, C57BL/6J mice; details: day five, p<0.05, t test
Experimental: as §1
(§2) The same GalNAc4S-6ST siRNA (0.3 μg/head) as used in Example 5 was injected to the submucous tissue of mouse large intestine, while the mice were allowed to drink water containing 3% DSS. The control groups used were: a group injected with scramble siRNA (“BLOCK-iT Fluorescent Oligo (Invitrogen)” in Example 4) and an untreated group in which mice were allowed to drink DSS water only. The body weight and disease activity index (DAI) score (Kihara M, Gut. 2003 52: 713-9) were recorded for five days while the mice were allowed to drink water containing 3% DDS. Then, the mice were sacrificed on the fifth day.
Next, the length of the large intestine was measured after sacrificing mice on day five. […] The length of the large intestine is a crucial indicator that reflects the intestinal fibrosis.

[7] = test system: DSS-induced colitis model mice; assay: Histology (hematoxylin-eosin) of large intestine in DSS colitis model mice; format: in vivo, C57BL/6J mice; details: HE-stained sections of large intestine
Experimental: as §1, §2
Next, tissue sections were prepared from collected large intestines and stained with hematoxylin-eosin. The resulting histological images were analyzed (FIG. 10).

[8] = presence of ribonuclease (RNase A), phosphate buffer

C[C@H](O)C(=O)Nc1c(I)c(C(=O)NC(CO)CO)c(I)c(C(=O)NC(CO)CO)c1I [iopamidol, N,N′-Bis[2-hydroxy-1-(hydroxymethyl)ethyl]-5-[(2S)-2-hydroxypropanoylamino]-2,4,6-triiodoisophthalamide]
Retention at the injection site, CT images [1]: retained specifically at the injection sites and did not spread to other slices | Retention at the injection site, X-ray images [1]: retained in the submucous tissue of the colon without intraperitoneal leakage and transfer to other sections

GalNAc4S-6ST siRNA: siRNA of SEQ ID NOs: 1 and 2 against GalNAc4S-6ST (Gene Bank accession number NM_015892), Hokkaido System Science (chain 1 GGAGCAGAGCAAGAUGAAUACAAUCAG; chain 2 GAUUGUAUUCAUCUUGCUCUGCUCCAU; listed as RNA, further chemistry not given here)
DAI score (stool consistency and fecal occult blood) [2]: lower | siRNA concentration in the large intestine ([3]; 0.5 hour after injection): retained at a very high concentration | siRNA concentration in the large intestine ([3]; 24 hours after injection): continually remained retained | siRNA concentration in the large intestine ([3]; three hours after injection): decreased by half | Expression of GalNAc4S-6ST in the kidney [4]: remained unchanged | Expression of GalNAc4S-6ST in the large intestine [4]: significantly suppressed the increased expression | Stability (gel band) ([5]; absence of ribonuclease, sterile phosphate buffer, after 60 minutes): relatively stable | Time after which the band disappeared [5, 8]: 30 min | Time point at which siRNA degradation was observed [5, 8]: 15 min | Gel band ([5]; siRNA embedded in 0.1% atelocollagen, ribonuclease (RNase A), after 30 minutes): faint but detectable | Colonic contraction (length of the large intestine) [6]: significantly suppressed | Epithelial disruption, infiltration of inflammatory cells into lamina propria and submucosa, and thickening of muscular layer [7]: markedly suppressed
